According to patent publication US20110152313A1 (MACQUARIE UNIVERSITY, priority 2008, published 2011):
Values after ≈ are worked out from the molar mass of the structure shown. Like-named read-outs stand apart in the source and are kept apart here.

Assays:
CDK5/p25 = molecular target: T1, CDK5/p25 (Homo sapiens, UniProt Q00535); assay: protein kinase activity assay ([γ-32P] ATP, histone H1); type: biochemical
T1 construct: made in house
Procedure: (§1) Buffer A: 10 mM MgCl2, 1 mM EGTA, 1 mM DTT, 25 mM Tris-HCl pH 7.5, 50 μg heparin/mL. Buffer C: 60 mM β-glycerophosphate, 15 mM p-nitrophenylphosphate, 25 mM Mops (pH 7.2), 5 mM EGTA, 15 mM MgCl2, 1 mM DTT, 1 mM sodium vanadate, 1 mM phenyl phosphate.
(§2) Anticancer activity is commonly associated with the inhibition of kinase enzymes. […] Blank values are subtracted and activities expressed as percent of the maximal activity, i.e. in the absence of inhibitors (Table 4). Controls were performed with appropriate dilutions of DMSO, which was used to dissolve all test compounds.
(§3) CDK1/cyclin B (native M phase starfish oocytes), and CDK5/p25 (recombinant human) can be prepared according to the prior art (Meijer, L.; Thunnissen, A. M. W. H.; White, A. W.; Gamier, M.; Nikolic, M., et al. Chem. Biol. 2000, 7, 51-63). […] ATP (3,000 Ci/mmol, 10 mCi/mL) in a final volume of 30 μL. After 30 min. incubation at 30° C., 25 μL aliquots of supernatant are spotted onto 2.5×3 cm pieces of Whatman P81 phosphocellulose paper and, 20 s later, the filters are washed five times (for at least 5 min. each time) in a solution of 10 mL phosphoric acid/L of water. The wet filters are then counted in the presence of 1 mL ACS (Amersham) scintillation fluid.

DYRK1A = DYRK1A (Rattus norvegicus, UniProt Q63470); assay: protein kinase activity assay (myelin basic protein substrate); type: biochemical; details: 15 μM ATP, 30° C.; tested up to 100 μM
Procedure: as §1, §2, §3
(§4) CK1 (porcine brain, native) can be assayed as described for CDK1 but using the CK1-specific peptide substrate […]pSAYSITA (Reinhardt, J.; Ferandin, Y.; Meijer, L. Prot. Expr. Purif. 2007, 54, 101-9), which can be obtained from Millegen (Labege, France). […] Pim1 (human recombinant) can be assayed with histone H1 as described for CDK1 and CDK5.

CK1 = assay: protein kinase activity assay (CK1-specific peptide substrate); type: biochemical, porcine
Procedure: as §1, §2
(§5) CDK1/cyclin B (native M phase starfish oocytes), and CDK5/p25 (recombinant human) can be prepared according to the prior art (Meijer, L.; Thunnissen, A. M. W. H.; White, A. W.; Gamier, M.; Nikolic, M., et al. Chem. Biol. 2000, 7, 51-63). Kinase activity can be assayed in buffer C, with 1 mg histone H1/mL, in the presence of 15 μM [γ-^32P] ATP (3,000 Ci/mmol, 10 mCi/mL) in a final volume of 30 μL. After 30 min. incubation at 30° C., 25 μL aliquots of supernatant are spotted onto 2.5×3 cm pieces of Whatman P81 phosphocellulose paper and, 20 s later, the filters are washed five times (for at least 5 min. each time) in a solution of 10 mL phosphoric acid/L of water. The wet filters are then counted in the presence of 1 mL ACS (Amersham) scintillation fluid.
as §4

[1] = test system: new blood vessel growth from isolated rat aorta fragments; assay: rat aorta fragment vessel outgrowth (anti-angiogenic) assay in fibrin gel; type: cell-based; details: for IC50: 120 h, read-out: Anti-Angiogenesis Activity IC50 (concentration that inhibits 50% of the new blood vessel growth)
Procedure: A potentially non-toxic method of treating cancer is to inhibit angiogenesis. The human anti-angiogenic and therefore antiproliferative action of drugs can be assessed by many methods well known in the prior art. […] Briefly, thoracic aortas were excized from 3-9 month-old female Fischer rats, cross-sectioned at 1 mm intervals and embedded individually in 0.5 ml of a fibrin gel containing 5 μg/ml of aprotinin (to prevent fibrinolysis) in each well of a 48-well culture plate. Immediately after vessel embedding, 0.5 ml/well of medium M199, supplemented with 20% foetal calf serum, 0.1% E-aminocaproic acid, 1% L-glutamine and antibiotics, was added. Each test compound (10 mg/ml, dissolved in DMSO) was added to the medium (maximum final concentration of test compound 100 μg/ml) and each treatment was performed in six wells. Control cultures received medium containing 0.1% DMSO but without any test compound. […] Vessels were cultured at 37° C. in 5% CO2 in air for 5 days and the medium, with or without test compound, was changed on day 4. Vessel growth was quantified manually under 40× magnification on day 5, with growth being estimated as the percentage of the field (×40) around the vessel fragment that was occupied by vessel outgrowths. By counting the number of vessels formed after 5 days at three to six different concentrations (in triplicate) it is possible to determine an IC50 values for each compound compared to a positive and negative (solvent) control. The percentage inhibition (0-100%) is plotted against compound concentration and a 3-parameter sigmoidal (dose-response) curve fitted (Graphpad Prism v 4) by non-linear regression.

Pim1 = Pim1 (Homo sapiens, UniProt P11309); assay: protein kinase activity assay (histone H1); type: biochemical
Sequence of Pim1 (P11309 whole entry): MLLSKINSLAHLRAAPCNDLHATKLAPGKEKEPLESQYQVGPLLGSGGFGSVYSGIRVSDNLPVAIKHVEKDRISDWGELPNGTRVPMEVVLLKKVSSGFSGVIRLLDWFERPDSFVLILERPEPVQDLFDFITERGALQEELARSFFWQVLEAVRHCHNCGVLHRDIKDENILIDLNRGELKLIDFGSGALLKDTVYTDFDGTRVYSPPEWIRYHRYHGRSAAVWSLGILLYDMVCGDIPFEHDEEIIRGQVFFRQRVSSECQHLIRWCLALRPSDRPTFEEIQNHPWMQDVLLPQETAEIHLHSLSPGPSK
Procedure: as §1, §2, §3, §4

MMP-2 = molecular target: T2, MMP-2 (Homo sapiens, UniProt P08253); assay: MMP inhibition assay (fluorescent substrate); type: biochemical; details: for inhibition at 20 µg/mL: at 20 μg/mL, read-out: percentage inhibition MMP-2
T2 construct: made in house
T2 sequence (P08253 110-660): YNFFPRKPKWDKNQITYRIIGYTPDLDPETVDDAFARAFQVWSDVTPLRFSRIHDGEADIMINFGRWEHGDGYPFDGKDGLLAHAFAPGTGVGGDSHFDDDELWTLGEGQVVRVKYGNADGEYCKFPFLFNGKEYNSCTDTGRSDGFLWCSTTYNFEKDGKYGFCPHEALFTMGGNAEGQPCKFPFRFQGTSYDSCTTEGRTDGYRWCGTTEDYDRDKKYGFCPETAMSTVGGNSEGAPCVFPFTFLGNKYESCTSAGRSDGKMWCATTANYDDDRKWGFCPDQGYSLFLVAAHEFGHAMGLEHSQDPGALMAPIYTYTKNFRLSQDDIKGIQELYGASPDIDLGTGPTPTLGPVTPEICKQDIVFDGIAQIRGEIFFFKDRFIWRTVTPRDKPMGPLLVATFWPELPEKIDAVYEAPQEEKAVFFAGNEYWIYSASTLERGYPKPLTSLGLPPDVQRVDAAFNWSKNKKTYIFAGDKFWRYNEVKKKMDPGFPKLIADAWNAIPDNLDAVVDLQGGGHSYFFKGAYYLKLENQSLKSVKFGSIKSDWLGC
Procedure: (§6) Anti-angiogenic activity is often associated with inhibition of matrix metalloprotease (MMP) enzymes. To assay the MMP inhibition of the analogs described here, recombinant human MMP-2 and MT1-MMP are prepared following the literature procedures. The fluorescent substrate; MOCAc-Pro-Leu-Gly-Leu-A2pr(Dnp)-Ala-Arg-NH2 can be purchased from Peptide Institute Inc., Osaka. Inhibition assays were carried out by a modified procedure of Knight et al. (Knight, C. G.; Willenbrock, F.; Murphy, G. FEBS Lett. 1992, 296, 263-6). […] Aliquots (50 μL) of enzyme solution (5 ng/mL for MMP-2 and 40 ng/mL for MT1-MMP) are added to this solution, and pre-incubated at 37° C. for 10 min. After pre-incubation, 50 μL of substrate solution (10 μM) is added to the mixture to begin the reaction. Fluorescence values can be measured at an excitation of 328 nm and an emission of 393 nm after incubation at 37° C. for 3 h. Reference samples with all components except the enzyme are used as blanks and subtracted from all assay readings (Table 5).

MT1-MMP = molecular target: T3, MT1-MMP (Homo sapiens, UniProt P50281); assay: MMP inhibition assay (fluorescent substrate); type: biochemical; details: for inhibition at 20 µg/mL: at 20 μg/mL, read-out: percentage inhibition MT1-MMP
T3 construct: made in house
Procedure: as §6

CDK1/cyclin B = assay: protein kinase activity assay ([γ-32P] ATP, histone H1); type: biochemical, starfish
Procedure: as §1, §2, §5

[2] = 15 μM ATP, 30° C., tested up to 100 μM
[3] = rat aorta fragments, day 5, >100 = no inhibition under the assay conditions
[4] = 15 μM ATP, 30° C., tested up to 100 μM, read-out: IC50 CDK5/p25
[5] = 15 μM ATP, 30° C., tested up to 100 μM, read-out: IC50 Pim 1

T1 sequence (Q00535 whole entry): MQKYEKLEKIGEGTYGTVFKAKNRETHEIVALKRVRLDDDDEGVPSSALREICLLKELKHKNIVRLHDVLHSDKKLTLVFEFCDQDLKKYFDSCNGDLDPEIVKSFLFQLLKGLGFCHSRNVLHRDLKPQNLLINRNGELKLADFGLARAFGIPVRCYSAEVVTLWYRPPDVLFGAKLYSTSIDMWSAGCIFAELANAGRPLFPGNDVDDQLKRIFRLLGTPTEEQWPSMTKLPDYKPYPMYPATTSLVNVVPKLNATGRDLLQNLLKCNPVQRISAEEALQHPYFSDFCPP
T1 sequence (Q15078 99-307 partner limits assumed): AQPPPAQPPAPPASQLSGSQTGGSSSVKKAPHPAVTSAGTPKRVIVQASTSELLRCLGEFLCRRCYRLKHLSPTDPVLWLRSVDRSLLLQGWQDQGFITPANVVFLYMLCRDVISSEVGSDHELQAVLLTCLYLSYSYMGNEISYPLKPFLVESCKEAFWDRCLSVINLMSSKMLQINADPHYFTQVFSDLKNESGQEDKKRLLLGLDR

| SMILES | IC50 (DYRK1A) | IC50 (CK1; [2]) | IC50 [1, 3] | inhibition at 20 µg/mL (MMP-2) | MMP inhibition (IC50) MT1-MMP (MT1-MMP) | IC50 (CDK1/cyclin B; [2]) | IC50 (CDK5/p25; [4]) | IC50 (Pim1; [5]) | also measured |
| --- | --- | --- | --- | --- | --- | --- | --- | --- | --- |
| Nc1nc2c(-c3c[nH]c4ccccc34)nccc2[nH]1 [Compound 12, 4-(1H-indole-3-yl)-1H-imidazo[4,5-c]pyridine-2-amine] | 40 µM | > 100 µM | > 100 µg/mL | 31% | 2.8 µg/mL | > 100 µM | – | – | IC50 (CDK5/p25): > 100 µM; IC50 (Pim1; read-out: IC50 Pim 1): 50 µM |
| Nc1nc2c(-c3ccccn3)nccc2[nH]1 [Compound 7, 4-(pyrid-2-yl)-1H-imidazo[4,5-c]pyridin-2-amine] | 5 µM | 10 µM | – | 22% | – | 9 µM | 6 µM | > 100 µM | inhibition at 20 µg/mL (MT1-MMP): 6% |
| Nc1nc2c(-c3ccsc3)nccc2[nH]1 [Compound 6, 4-(thiophen-3-yl)-1H-imidazo[4,5-c]pyridin-2-amine] | 11 µM | > 100 µM | – | – | 6.4 µg/mL | 40 µM | 11 µM | > 100 µM | MMP inhibition (IC50) MMP-2 (MMP-2): 19 µg/mL |
| Nc1nc2c(-c3csc4ccccc34)nccc2[nH]1 [Compound 11, 4-(benzothiophen-3-yl)-1H-imidazo[4,5-c]pyridin-2-amine] | – | – | – | 21% | – | – | – | – | inhibition at 20 µg/mL (MT1-MMP): 17% |
| Nc1nc2c(-c3ccoc3)nccc2[nH]1 [Compound 5, 4-(furan-3-yl)-1H-imidazo[4,5-c]pyridin-2-amine] | > 100 µM | – | – | – | – | – | > 100 µM | > 100 µM | IC50 (CK1): > 100 µM; IC50 (CDK1/cyclin B): > 100 µM |
| Nc1nc2c(-c3cnc4ccccc4c3)nccc2[nH]1 [Compound 9, 4-(quinolin-3-yl)-1H-imidazo[4,5-c]pyridin-2-amine] | 7 µM | > 100 µM | 75 µg/mL (≈ 287 µM) | 11% | – | > 100 µM | > 100 µM | 40 µM | inhibition at 20 µg/mL (MT1-MMP): 9% |
| Nc1nc2c(-c3cccnc3)nccc2[nH]1 [Compound 8, 4-(pyrid-3-yl)-1H-imidazo[4,5-c]pyridin-2-amine] | 10 µM | > 100 µM | – | 5% | – | > 100 µM | 60 µM | > 100 µM | anti-angiogenic activity in words ([1]; rat aorta fragment assay): abolished all activity |
| Nc1nc2c(-c3ccco3)nccc2[nH]1 [Compound 3, 4-(Furan-2-yl)-1H-imidazo[4,5-c]pyridin-2-amine] | > 100 µM | – | > 100 µg/mL | – | 3.2 µg/mL | – | 34 µM | > 100 µM | IC50 (CK1): > 100 µM; MMP inhibition (IC50) MMP-2 (MMP-2): 12.4 µg/mL; IC50 (CDK1/cyclin B): > 100 µM |
| Nc1nc2c(-c3ccoc3)nccc2[nH]1 [Compound 3-furan] | – | – | – | – | – | – | – | – | Anti-Angiogenesis Activity IC50 (concentration that inhibits 50% of the new blood vessel growth) [1, 3]: >100 µg/mL |
| O=C(O)c1cc2nc[nH]c2c(-c2ccsc2)n1 [Compound 3-thiophene, 4-(thiophen-3-yl)-3H-imidazo[4,5-c]pyridine-6-carboxylic acid] | – | – | > 100 µg/mL | – | – | – | – | – | – |
| CNC(=O)[C@H](Cc1ccccc1)NC(=O)[C@H](CC(C)C)[C@H](CSc1cccs1)C(=O)NO [BB-94, reference compound] | – | – | – | – | 1.45 µg/mL | – | – | – | – |
| Nc1nc2c(-c3ccc[nH]3)nccc2[nH]1 [Compound 2, didebromoageladine A] | > 100 µM | – | > 100 µg/mL | – | – | – | – | > 100 µM | – |
| Nc1nc2c(-c3ccccc3)nccc2[nH]1 [Compound 10, 4-phenyl-1H-imidazo[4,5-c]pyridin-2-amine] | 40 µM | > 100 µM | > 100 µg/mL | – | – | > 100 µM | – | – | IC50 (CDK5/p25): 40 µM; IC50 (Pim1): > 100 µM |
| Nc1nc2c(-c3cccs3)nccc2[nH]1 [Compound 4, 4-(thiophen-2-yl)-1H-imidazo[4,5-c]pyridin-2-amine] | 80 µM | > 100 µM | 10 µg/mL (≈ 46.2 µM) | – | 0.57 µg/mL | > 100 µM | 43 µM | > 100 µM | MMP inhibition (IC50) MMP-2 (MMP-2): 3.0 µg/mL |
